From patent US11274084B2, “3-aryl-4-amido-bicyclic [4,5,0] hydroxamic acids as HDAC inhibitors” (Valo Health, Inc., priority 2015, dated 2022) come the findings set out here.

The assay deals with T1, HDAC6 (Homo sapiens, UniProt Q9UBN7).
T1 construct: Full length human recombinant HDAC6 protein; made in house
T1 sequence (Q9UBN7 1-1215): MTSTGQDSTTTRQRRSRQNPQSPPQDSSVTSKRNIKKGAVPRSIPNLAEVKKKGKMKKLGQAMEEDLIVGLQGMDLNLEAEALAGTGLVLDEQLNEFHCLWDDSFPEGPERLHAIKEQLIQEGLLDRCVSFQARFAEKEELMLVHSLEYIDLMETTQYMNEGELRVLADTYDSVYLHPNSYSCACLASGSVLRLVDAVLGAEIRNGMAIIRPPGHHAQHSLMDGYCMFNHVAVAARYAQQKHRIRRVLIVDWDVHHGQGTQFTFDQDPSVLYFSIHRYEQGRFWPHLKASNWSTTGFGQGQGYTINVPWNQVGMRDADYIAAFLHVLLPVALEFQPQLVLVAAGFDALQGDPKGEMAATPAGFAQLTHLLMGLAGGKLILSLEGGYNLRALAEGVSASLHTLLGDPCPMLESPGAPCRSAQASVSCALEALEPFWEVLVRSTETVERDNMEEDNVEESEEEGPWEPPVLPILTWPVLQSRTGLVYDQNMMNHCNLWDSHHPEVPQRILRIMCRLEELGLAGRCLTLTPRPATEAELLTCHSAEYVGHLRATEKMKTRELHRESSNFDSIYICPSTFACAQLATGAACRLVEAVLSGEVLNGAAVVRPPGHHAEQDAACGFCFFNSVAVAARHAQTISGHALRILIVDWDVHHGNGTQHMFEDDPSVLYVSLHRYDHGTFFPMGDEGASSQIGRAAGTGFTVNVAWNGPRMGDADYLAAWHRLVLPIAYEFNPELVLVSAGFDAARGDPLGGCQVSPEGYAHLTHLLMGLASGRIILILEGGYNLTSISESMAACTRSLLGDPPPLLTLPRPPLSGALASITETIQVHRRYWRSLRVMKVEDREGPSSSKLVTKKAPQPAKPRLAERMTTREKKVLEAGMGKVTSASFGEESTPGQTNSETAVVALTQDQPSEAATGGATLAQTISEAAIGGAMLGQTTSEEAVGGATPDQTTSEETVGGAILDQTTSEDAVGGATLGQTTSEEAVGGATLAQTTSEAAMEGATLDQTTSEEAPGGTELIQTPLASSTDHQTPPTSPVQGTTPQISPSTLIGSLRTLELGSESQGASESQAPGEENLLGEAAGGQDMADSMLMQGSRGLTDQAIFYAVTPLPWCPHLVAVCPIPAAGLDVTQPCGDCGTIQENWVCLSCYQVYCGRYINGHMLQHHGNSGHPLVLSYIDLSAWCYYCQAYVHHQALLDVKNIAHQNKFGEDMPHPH
Put plainly: In vitro histone deacetylase assay: enzymatic HDAC6 assay by electrophoretic mobility shift. The format is biochemical. As to conditions: full length human recombinant HDAC6 1 nM, 2 μM peptide substrate RHKK(Ac)-NH2, 25° C., 12 concentrations; read-out: Inhibitory Concentration (IC50) against HDAC6, Activity Range. The procedure:
The enzymatic HDAC6 assay was performed using electrophoretic mobility shift assay. […] The enzymatic reactions were assembled in 384-well plates in a total volume of 25 μL of a reaction buffer comprising. 100 mM HEPES, pH 7.5, 25 mM KCl, 0.1% bovine serum albumin, 0.01% Triton X-100, 1% DMSO (from compounds), 2 μM of the fluorescently labeled peptide substrate, and enzyme. The enzyme was added at a final concentration of 1 nM. The peptide substrate RHKK(Ac)-NH2 was used. The compounds were tested at 12 concentrations spaced by 3× dilution intervals. Negative control samples (0%-inhibition in the absence of inhibitor) and positive control samples (100%-inhibition) were assembled in replicates of four in each assay plate. The reactions were incubated at 25° C. and quenched by the addition of 45 μL of termination buffer (100 mM HEPES, pH 7.5, 0.01% Triton X-100, 0.05% SDS).
The terminated assay plates were analyzed on LabChip® 3000 microfluidic electrophoresis instrument (Perkin Elmer/Caliper Life Sciences). The fluorescence intensity of the electrophoretically separated de-acetylated product and substrate peptide was measured. Activity in each sample was determined as the product to sum ratio (PSR):P/(S+P), where P is the peak height of the product peptide and S is the peak height of the substrate peptide. Percent inhibition (Pinh) is determined using the following equation:
Pinh=(PSR0%−PSRinh)/(PSR0%−PSR100%)*100, where PSRinh is the product sum ratio in the presence of inhibitor, PSR0% is the average product sum ration in the absence of inhibitor, and PSR100% is the average product sum ratio in 100%-inhibition control samples. The IC50 values of inhibitors were determined by fitting the %-inhibition curves with 4 parameter dose-response models using XLfit 4 software.
(A gel shift assay detects complexes by their altered migration in electrophoresis.)
Regarding `O=C(NO)c1ccc2c(c1)OC[C@@H](c1cccnc1)N(C(=O)C1CCOCC1)C2` (single isomer, unassigned), the IC50 is at most 100 nM.

As to `O=C(NO)c1ccc2c(c1)OC[C@@H](c1ccccc1C(F)(F)F)N(C(=O)C1CCOCC1)C2` (single isomer, unassigned), the IC50 is over 500 nM. Regarding `O=C(NO)c1ccc2c(c1)OC[C@@H](c1cccc(C(F)(F)F)c1)N(C(=O)C1CCOCC1)C2` (single isomer, unassigned), the IC50 fell in the range of 100 to 500 nM. As for `O=C(NO)c1ccc2c(c1)OC[C@H](c1cccnc1)N(C(=O)C1CCOCC1)C2` (single isomer, unassigned), the figure is 100 to 500 nM.

Turning to `O=C(NO)c1ccc2c(c1)OC[C@H](c1ccccc1)N(C(=O)[C@@H]1CCCOC1)C2` (single isomer, unassigned), the IC50 is at most 100 nM.

With `O=C(NO)c1ccc2c(c1)OC[C@H](c1ccccc1)N(C(=O)[C@@H]1CCOC1)C2` (single isomer, unassigned), the IC50 is at most 100 nM. `O=C(NO)c1ccc2c(c1)OC[C@H](c1ccccc1)N(C(=O)[C@H]1CCCOC1)C2` (single isomer, unassigned): the IC50 is at most 100 nM. As for `O=C(NO)c1ccc2c(c1)OC[C@H](c1ccccc1)N(C(=O)[C@H]1CCOC1)C2` (single isomer, unassigned), the figure is at most 100 nM; as for `O=C(NO)c1ccc2c(c1)OC[C@H](c1ccccc1C(F)(F)F)N(C(=O)C1CCOCC1)C2` (single isomer, unassigned), at most 100 nM. For `O=C(NO)c1ccc2c(c1)OC[C@H](c1cccc(C(F)(F)F)c1)N(C(=O)C1CCOCC1)C2` (single isomer, unassigned), the IC50 was at most 100 nM. With `O=C(NO)c1ccc2c(c1)OC[C@H](c1ccccc1)N(C(=O)C1CC3CCC(C1)O3)C2` (stereo partly drawn) [(3S)-4-(8-oxabicyclo[3.2.1]octane-3-carbonyl)-N-hydroxy-3-phenyl-2,3,4,5-tetrahydrobenzo[f][1,4]oxazepine-8-carboxamide], the IC50 was at most 100 nM. `O=C(NO)c1ccc2c(c1)OC[C@H](c1ccccc1)N(C(=O)C1CCCO1)C2` (stereo partly drawn) [(3S)-N-hydroxy-3-phenyl-4-(tetrahydrofuran-2-carbonyl)-2,3,4,5-tetrahydrobenzo[f][1,4]oxazepine-8-carboxamide]: the IC50 is at most 100 nM. As for `O=C(NO)c1ccc2c(c1)OC[C@@H](c1ccccc1F)N(C(=O)C1CCOCC1)C2` [(R)-3-(2-fluorophenyl)-N-hydroxy-4-(tetrahydro-2H-pyran-4-carbonyl)-2,3,4,5-tetrahydrobenzo[f][1,4]oxazepine-8-carboxamide], the IC50 was in the range of 100 to 500 nM. As for `O=C(NO)c1ccc2c(c1)OC[C@@H](c1ccccc1)N(C(=O)C1CCOCC1)C2` [(R)-N-hydroxy-3-phenyl-4-(tetrahydro-2H-pyran-4-carbonyl)-2,3,4,5-tetrahydrobenzo[f][1,4]oxazepine-8-carboxamide], the figure is over 500 nM.

Turning to `O=C(NO)c1ccc2c(c1)OC[C@H](c1ccccc1F)N(C(=O)C1CCOCC1)C2` [(S)-3-(2-fluorophenyl)-N-hydroxy-4-(tetrahydro-2H-pyran-4-carbonyl)-2,3,4,5-tetrahydrobenzo[f][1,4]oxazepine-8-carboxamide], the IC50 was at most 100 nM. Take `O=C(NO)c1ccc2c(c1)OC[C@H](c1cccc(Cl)c1)N(C(=O)C1CCOCC1)C2` [(S)-3-(3-chlorophenyl)-N-hydroxy-4-(tetrahydro-2H-pyran-4-carbonyl)-2,3,4,5-tetrahydrobenzo[f][1,4]oxazepine-8-carboxamide]: the IC50 was at most 100 nM. As for `O=C(NO)c1ccc2c(c1)OC[C@H](c1cccc(F)c1)N(C(=O)C1CCOCC1)C2` [(S)-3-(3-fluorophenyl)-N-hydroxy-4-(tetrahydro-2H-pyran-4-carbonyl)-2,3,4,5-tetrahydrobenzo[f][1,4]oxazepine-8-carboxamide], the figure is at most 100 nM; as for `O=C(NO)c1ccc2c(c1)OC[C@H](c1ccc(Cl)cc1)N(C(=O)C1CCOCC1)C2` [(S)-3-(4-chlorophenyl)-N-hydroxy-4-(tetrahydro-2H-pyran-4-carbonyl)-2,3,4,5-tetrahydrobenzo[f][1,4]oxazepine-8-carboxamide], at most 100 nM. For the molecule `O=C(NO)c1ccc2c(c1)OC[C@H](c1ccc(F)cc1)N(C(=O)C1CCOCC1)C2` [(S)-3-(4-fluorophenyl)-N-hydroxy-4-(tetrahydro-2H-pyran-4-carbonyl)-2,3,4,5-tetrahydrobenzo[f][1,4]oxazepine-8-carboxamide], the IC50 was at most 100 nM. Consider `CC(=O)N1CCC(C(=O)N2Cc3ccc(C(=O)NO)cc3OC[C@@H]2c2ccccc2)CC1` [(S)-4-(1-acetylpiperidine-4-carbonyl)-N-hydroxy-3-phenyl-2,3,4,5-tetrahydrobenzo[f][1,4]oxazepine-8-carboxamide], for which the IC50 is at most 100 nM.

As for `O=C(NO)c1ccc2c(c1)OC[C@H](c1ccccc1)N(C(=O)c1ccc(F)cc1)C2` [(S)-4-(4-fluorobenzoyl)-N-hydroxy-3-phenyl-2,3,4,5-tetrahydrobenzo[f][1,4]oxazepine-8-carboxamide], the IC50 is at most 100 nM. As for `O=C(NO)c1ccc2c(c1)OC[C@H](c1ccccc1)N(C(=O)C1(F)CCOCC1)C2` [(S)-4-(4-fluorotetrahydro-2H-pyran-4-carbonyl)-N-hydroxy-3-phenyl-2,3,4,5-tetrahydrobenzo[f][1,4]oxazepine-8-carboxamide], the figure is at most 100 nM; as for `O=C(NO)c1ccc2c(c1)OC[C@H](c1ccccc1)N(C(=O)C1CCC1)C2` [(S)-4-(cyclobutanecarbonyl)-N-hydroxy-3-phenyl-2,3,4,5-tetrahydrobenzo[f][1,4]oxazepine-8-carboxamide], at most 100 nM.

Turning to `O=C(NO)c1ccc2c(c1)OC[C@H](c1ccccc1)N(C(=O)C1CCCCC1)C2` [(S)-4-(cyclohexanecarbonyl)-N-hydroxy-3-phenyl-2,3,4,5-tetrahydrobenzo[f][1,4]oxazepine-8-carboxamide], the IC50 was at most 100 nM. In the case of `O=C(NO)c1ccc2c(c1)OC[C@H](c1ccccc1)N(C(=O)C1CCCC1)C2` [(S)-4-(cyclopentanecarbonyl)-N-hydroxy-3-phenyl-2,3,4,5-tetrahydrobenzo[f][1,4]oxazepine-8-carboxamide], the IC50 was at most 100 nM. For `CC(=O)N1Cc2ccc(C(=O)NO)cc2OC[C@@H]1c1ccccc1` [(S)-4-acetyl-N-hydroxy-3-phenyl-2,3,4,5-tetrahydrobenzo[f][1,4]oxazepine-8-carboxamide], the IC50 is at most 100 nM. As to `O=C(NO)c1ccc2c(c1)OC[C@H](c1ccccc1)N(C(=O)C1CCOCC1)C2` [(S)-N-hydroxy-3-phenyl-4-(tetrahydro-2H-pyran-4-carbonyl)-2,3,4,5-tetrahydrobenzo[f][1,4]oxazepine-8-carboxamide], the IC50 was at most 100 nM.

As to `O=C(NO)c1ccc2c(c1)OC[C@H](c1ccccc1)N(C(=O)c1ccccn1)C2` [(S)-N-hydroxy-3-phenyl-4-picolinoyl-2,3,4,5-tetrahydrobenzo[f][1,4]oxazepine-8-carboxamide], the IC50 is at most 100 nM.
